Test results published in PMC9220351, “Evaluation of a Conformationally Constrained Indole Carboxamide as a Potential Efflux Pump Inhibitor in Pseudomonas aeruginosa” (Antibiotics, 2022).
Like-named read-outs stand apart in the source and are kept apart here.

Legend:
Format in all cases: cell-based, Pseudomonas aeruginosa
[1] = test system: 209 P. aeruginosa clinical isolates from three US hospitals; test: Susceptibility study, Micromyx panel; conditions: n: 209
Text: First, 209 clinical isolates of P. aeruginosa were collected, unbiased of susceptibility, from three US hospitals by Micromyx (now part of Microbiologics; Kalamazoo, MI, USA). IHMA (Monthey, Switzerland) collected 300 P. aeruginosa clinical isolates, also unbiased of susceptibility, from the following 63 countries: Argentina, Australia, Belgium, Brazil, Canada, Chile, Colombia, Costa Rica, Croatia, Czech Republic, Denmark, Dominican Republic, Ecuador, France, Georgia, Germany, Greece, Guatemala, Hong Kong, Hungary, India, Ireland, Israel, Italy, Japan, Jordan, Kazakhstan, Kenya, South Korea, Kuwait, Latvia, Lebanon, Lithuania, Malaysia, Mexico, Morocco, Netherlands, New Zealand, Nigeria, Panama, Philippines, Poland, Portugal, Puerto Rico, Qatar, Romania, Russia, Saudi Arabia, Serbia, Slovenia, South Africa, Spain, Sweden, Switzerland, Taiwan, Thailand, Tunisia, Turkey, Ukraine, United Kingdom, United States, Venezuela, and Vietnam. Isolates came from the following types of infection: genitourinary (urine), gastrointestinal (stomach), gastrointestinal (pancreas), […] (wound), respiratory (sputum), […] (blood), respiratory (bronchoalveolar lavage), […] (burn), respiratory (endotracheal aspirate), bodily fluids (abscess/pus), […] (impetiginous lesions), gastrointestinal (abscess) and respiratory (bronchial brushing). CF patients were not excluded.
(§1) MIC assays were performed as described previously.

[2] = test system: 34 MDR P. aeruginosa clinical isolates (CDC & FDA AR Isolate Bank); test: microbe, parasite or virus in culture; conditions: for MIC: Pseudomonas aeruginosa, alone or + labelled EPI […] (TXA09155 head: 50 µg/mL)
Text: P. aeruginosa ATCC 27853 was obtained from the American Type Culture Collection (ATCC; Manassas, VA, USA). P. aeruginosa multidrug-resistant isolates were obtained from the CDC and FDA Antibiotic Resistance Isolate Bank (Atlanta, GA, USA). P. aeruginosa DA7232 (gyrA-T83I, parC-S80L) was a kind gift from Prof. Dan I. Andersson, Uppsala University, Uppsala, Sweden, and has been characterized elsewhere. P. aeruginosa strains K767 (WT), K1455 (mexAB-oprM overexpressed), K2415 (mexXY-oprM overexpressed), and K3698 (oprM∆) were obtained from Prof. Keith Poole, Queen’s University, Kingston, Ontario, Canada and have been characterized elsewhere. Bacterial cells were grown in cation-adjusted Mueller Hinton (CAMH) media, brain heart infusion broth (BHI), or tryptic soy agar (TSA) plates were all obtained from Becton, Dickinson, and Company (BD; Franklin Lakes, NJ, USA). […] Azithromycin was purchased from Tokyo Chemical Industry (Portland, OR, USA). […] Ethidium bromide (EtBr) and glucose were purchased from VWR (Radnor, PA, USA). MC-04,124 and TXA01182 were synthesized at TAXIS Pharmaceuticals. Carbonyl cyanide 3-chlorophenylhydrazone (CCCP) was purchased from Enzo Life Sciences (Farmingdale, NY, USA). DiOC2 (3) and propidium iodide were obtained from Thermo Fisher Scientific (Waltham, MA, USA).
as §1

[3] = test system: P. aeruginosa mutants EPIR1S, EPIR9S, EPIR20L, EPIR43; test: MIC of antimicrobials in TXA09155-resistant mutants; conditions: Pseudomonas aeruginosa
Protocol: All resistant colonies were verified by determining the MIC to TXA09155. […] This two-component system regulates the expression of more than 100 genes in P. aeruginosa, including genes that code for efflux components (mexX), and plays a role in the resistance to cationic antimicrobial peptides and aminoglycoside antibiotics.
as §1

[4] = in combination TXA09155 fixed […]
[5] = n: 34, in combination EPI fixed […]

How did the “% R (percent resistant per breakpoints)” value ([1]; LVX ≤1S 2I ≥4R) turn out when `C[C@H]1COc2c(N3CCN(C)CC3)c(F)cc3c(=O)c(C(=O)O)cn1c23` [Levofloxacin] was run?
The value was 32%.

What about the “Cumulative Susceptibility % Strains at 0.5” value ([1]; concentration 0.5 µg/ml) of the same compound?
Its value is 47%.

What about the “Cumulative Susceptibility % Strains at 1” value ([1]; concentration 1 µg/ml) of the same compound?
The value was 58%.

What about the “Cumulative Susceptibility % Strains at 2” value ([1]; concentration 2 µg/ml) of the same compound?
The value was 68%.

What about the “Cumulative Susceptibility % Strains at 4” value ([1]; concentration 4 µg/ml) of the same compound?
The value was 78%.

What about the “Cumulative Susceptibility % Strains at 8” value ([1]; concentration 8 µg/ml) of the same compound?
Its value is 86%.

And the “Cumulative Susceptibility % Strains at 16” value ([1]; concentration 16 µg/ml)?
The value was 93%.

And the “Cumulative Susceptibility % Strains at 32” value ([1]; concentration 32 µg/ml)?
Its value is 98%.

And the “Cumulative Susceptibility % Strains at >32” value ([1]; concentration >32 µg/ml)?
The value was 100%.

And the “Cumulative Susceptibility % Strains at 0.12” value ([1]; concentration column 0.12 µg/ml)?
The value was 2%.

And the MIC50 [1, 4]?
The MIC50 was 1 µg/mL.

And the MIC90 [1, 4]?
Its MIC90 is 16 µg/mL.

What about the MIC ([2]; read-out: Levofloxacin MIC, strain AR-0229) of the same compound?
Its MIC is 64 µg/mL.

And the MIC ([2]; read-out: Levofloxacin MIC, strain AR-0230)?
The MIC was 64 µg/mL.

What about the MIC ([2]; read-out: Levofloxacin MIC, strain AR-0231) of the same compound?
Its MIC is 64 µg/mL.

What about the MIC ([2]; read-out: Levofloxacin MIC, strain AR-0232) of the same compound?
Its MIC is 8 µg/mL.

What about the MIC ([2]; read-out: Levofloxacin MIC, strain AR-0233) of the same compound?
The MIC was 4 µg/mL.

And the MIC ([2]; read-out: Levofloxacin MIC, strain AR-0234)?
The MIC was 8 µg/mL.

What about the MIC ([2]; read-out: Levofloxacin MIC, strain AR-0236) of the same compound?
The MIC was 32 µg/mL.

What about the MIC ([2]; read-out: Levofloxacin MIC, strain AR-0239) of the same compound?
Its MIC is 64 µg/mL.

And the MIC ([2]; read-out: Levofloxacin MIC, strain AR-0240)?
Its MIC is 128 µg/mL.

And the MIC ([2]; read-out: Levofloxacin MIC, strain AR-0241)?
The MIC was 64 µg/mL.

And the MIC ([2]; read-out: Levofloxacin MIC, strain AR-0242)?
The MIC was 16 µg/mL.

What about the MIC ([2]; read-out: Levofloxacin MIC, strain AR-0244) of the same compound?
The MIC was 128 µg/mL.

What about the MIC ([2]; read-out: Levofloxacin MIC, strain AR-0245) of the same compound?
Its MIC is 128 µg/mL.

What about the MIC ([2]; read-out: Levofloxacin MIC, strain AR-0246) of the same compound?
Its MIC is 64 µg/mL.

And the MIC ([2]; read-out: Levofloxacin MIC, strain AR-0247)?
Its MIC is 2 µg/mL.

And the MIC ([2]; read-out: Levofloxacin MIC, strain AR-0248)?
The MIC was 16 µg/mL.

What about the MIC ([2]; read-out: Levofloxacin MIC, strain AR-0249) of the same compound?
The MIC was 64 µg/mL.

What about the MIC ([2]; read-out: Levofloxacin MIC, strain AR-0250) of the same compound?
The MIC was 64 µg/mL.

What about the MIC ([2]; read-out: Levofloxacin MIC, strain AR-0252) of the same compound?
Its MIC is 32 µg/mL.

And the MIC ([2]; read-out: Levofloxacin MIC, strain AR-0253)?
Its MIC is 2 µg/mL.

What about the MIC ([2]; read-out: Levofloxacin MIC, strain AR-0256) of the same compound?
The MIC was 0.5 µg/mL.

And the MIC ([2]; read-out: Levofloxacin MIC, strain AR-0258)?
Its MIC is 0.5 µg/mL.

And the MIC ([2]; read-out: Levofloxacin MIC, strain AR-0259)?
The MIC was 0.5 µg/mL.

And the MIC ([2]; read-out: Levofloxacin MIC, strain AR-0260)?
The MIC was 64 µg/mL.

What about the MIC ([2]; read-out: Levofloxacin MIC, strain AR-0261) of the same compound?
The MIC was 8 µg/mL.

What about the MIC ([2]; read-out: Levofloxacin MIC, strain AR-0262) of the same compound?
The MIC was 4 µg/mL.

What about the MIC ([2]; read-out: Levofloxacin MIC, strain AR-0264) of the same compound?
Its MIC is 32 µg/mL.

And the MIC ([2]; read-out: Levofloxacin MIC, strain AR-0265)?
Its MIC is 64 µg/mL.

What about the MIC ([2]; read-out: Levofloxacin MIC, strain AR-0266) of the same compound?
Its MIC is 32 µg/mL.

And the MIC ([2]; read-out: Levofloxacin MIC, strain AR-0267)?
The MIC was 32 µg/mL.

What about the MIC ([2]; read-out: Levofloxacin MIC, strain AR-0269) of the same compound?
Its MIC is 32 µg/mL.

What about the MIC ([2]; read-out: Levofloxacin MIC, strain AR-0270) of the same compound?
Its MIC is 32 µg/mL.

And the MIC ([2]; read-out: Levofloxacin MIC, strain AR-0271)?
The MIC was 32 µg/mL.

What about the MIC ([2]; read-out: Levofloxacin MIC, strain AR-0272) of the same compound?
The MIC was 16 µg/mL.

What about the “Cumulative Susceptibility % Strains at 0.5” value ([2]; concentration 0.5 µg/ml, n: 34) of the same compound?
Its value is 9%.

And the “Cumulative Susceptibility % Strains at 1” value ([2]; concentration 1 µg/ml, n: 34)?
Its value is 9%.

What about the “Cumulative Susceptibility % Strains at 2” value ([2]; concentration 2 µg/ml, n: 34) of the same compound?
The value was 15%.

And the “Cumulative Susceptibility % Strains at 4” value ([2]; concentration 4 µg/ml, n: 34)?
The value was 21%.

And the “Cumulative Susceptibility % Strains at 8” value ([2]; concentration 8 µg/ml, n: 34)?
The value was 29%.

What about the “Cumulative Susceptibility % Strains at 16” value ([2]; concentration 16 µg/ml, n: 34) of the same compound?
The value was 38%.

And the “Cumulative Susceptibility % Strains at 32” value ([2]; concentration 32 µg/ml, n: 34)?
The value was 62%.

And the “Cumulative Susceptibility % Strains at 0.06” value ([2]; concentration column 0.06 µg/ml, n: 34)?
Its value is 0%.

What about the “Cumulative Susceptibility % Strains at 64” value ([2]; concentration column 64 µg/ml, n: 34) of the same compound?
The value was 91%.

What about the “Cumulative Susceptibility % Strains at 128” value ([2]; concentration column 128 µg/ml, n: 34) of the same compound?
The value was 100%.

What about the “Cumulative Susceptibility % Strains at ≤0.03” value ([2]; concentration column ≤0.03 µg/ml, n: 34) of the same compound?
Its value is 0%.

And the MIC50 [2, 5]?
The MIC50 was 32 µg/mL.

What about the MIC90 [2, 5] of the same compound?
Its MIC90 is 64 µg/mL.

What about the “MIC Range” value [2, 5] of the same compound?
Its value is 0.5 to 128 µg/mL.

And the “MIC Range” value ([2]; n: 34, in combination EPI fixed […], listed as LVX)?
Its value is 0.5 to 128 µg/mL.

And the MIC ([3]; strain EPIR1S (phoQ-L175R))?
Its MIC is 1 µg/mL.

What about the MIC ([3]; strain EPIR9S (phoQ-L175R)) of the same compound?
Its MIC is 1 µg/mL.

What about the MIC ([3]; strain EPIR20L (phoQ-H248D)) of the same compound?
The MIC was 1 µg/mL.
